Here are results for 4 compounds from ChEMBL document CHEMBL1201862, “PubChem BioAssay data set” (2004).

Active and inactive are the calls of the source.

Assay [1] deals with T1, Heat shock factor protein 1 (Mus musculus, UniProt P38532).
T1 sequence (P38532 whole entry): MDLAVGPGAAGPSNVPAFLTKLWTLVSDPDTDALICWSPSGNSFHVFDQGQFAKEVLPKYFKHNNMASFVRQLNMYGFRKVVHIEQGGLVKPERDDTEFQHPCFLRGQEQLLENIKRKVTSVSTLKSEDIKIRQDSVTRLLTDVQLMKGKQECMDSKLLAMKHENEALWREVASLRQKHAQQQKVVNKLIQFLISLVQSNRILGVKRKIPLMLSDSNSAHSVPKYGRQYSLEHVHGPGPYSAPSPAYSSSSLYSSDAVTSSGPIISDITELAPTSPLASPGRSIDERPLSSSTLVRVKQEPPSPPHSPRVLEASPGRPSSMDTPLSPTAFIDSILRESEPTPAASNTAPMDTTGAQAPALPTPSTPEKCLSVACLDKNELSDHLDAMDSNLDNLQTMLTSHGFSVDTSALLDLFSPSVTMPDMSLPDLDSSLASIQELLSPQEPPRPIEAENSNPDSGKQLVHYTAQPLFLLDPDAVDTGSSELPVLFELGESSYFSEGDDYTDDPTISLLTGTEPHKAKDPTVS
The experiment in a line: enhancement of HSF1-driven luciferase signal – cell-based, NIH3T3, luminescence, dose retest, confirmation (AID 435004).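 Note: stress induced by proteasome inhibitor MG132 added 30 min after compound; luciferase reporter driven by HSF1 response element in NIH3T3 cells; actives raise luminescence as potentiators of the MG132 stress response.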 It counts as functional.

Assay [2] has as its system HEK293. Put plainly: cells. It counts as functional, cell-based. The note with it: Homo sapiens.
For assay [3], the system named is HEK293. The experiment in a line: cells. The settings on record: Homo sapiens. The class given is functional, cell-based. This is another data set of the same source.
Assay [4] in a line: Trypanosoma cruzi growth suppression in host cells – NIH3T3 host cells, beta-gal luminescence, confirmation (AID 2044).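 Note: intracellular parasites grown in NIH/3T3 mouse fibroblasts as host cells; luminescent beta-galactosidase reporter signal from transgenic T. cruzi replicating inside host cells; inhibitors lower the luminescence signal.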 The class given is functional, cell-based.
Assay [5] in a line: NIH3T3 cell viability loss – ATP luminescence, mouse fibroblasts, counter-screen, dose response (AID 2010).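 Note: cells exposed to compound for about 90 hours before reading.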 The class given is functional, cell-based. A general note: The purpose of a counterscreen is to sort out artefacts and off-target activity.
Assay [6] relates to HEK293. The experiment in a line: inhibition of NOD1-driven NF-kB reporter – cell-based, luminescence, uHTS, primary screen (AID 1578). The note with it: Homo sapiens. It counts as functional.
A short description of assay [7]: non-specific 3'UTR reporter inhibition in Clone20-Shn3RL – cell-based, Renilla luciferase, cherry-picked, counter-screen for Shn3 inhibitor project, dose response (AID 624133). The class given is functional.
Assay [8] is described as follows: decrease of insulin promoter-GFP reporter – imaging, high-content screening, mouse beta cells (AID 1628). The class given is functional. The note with it: MIN6.
Assay [9] is described as follows: blockers of HIV-1 envelope-mediated cell-cell fusion – cherry-pick, dose response (AID 652057). The class given is functional, cell-based.
Assay [10] in a line: blockers of HIV-1 ZM109 envelope-driven cell-cell fusion – HeLa effector, CEM target cells, luciferase, cherry-pick, dose response (AID 652058).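 Note: luciferase signal from HIV-1 Env mediated cell-cell fusion of effector and target cells.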 The class given is functional, cell-based.
Assay [11] can be described thus: reduction of Shn3 3'UTR-driven luciferase in osteoblasts – cell-based, Clone20 osteoblasts, firefly luciferase, cherry-picked, dose response (AID 624132).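 Note: firefly luciferase luminescence from reporter carrying the Shn3 3'UTR in osteoblasts.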 It counts as functional.
Assay [12] can be described thus: off-target signal loss in HeLa-CEM21 co-culture – HeLa F-luc CTL cells, cherry-picked, counter-screen for HIV-1 Env fusion inhibitor project, dose response (AID 652040).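 Note: potency for signal decrease marking cytotoxic or nonspecific inhibition.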 The class given is functional, cell-based.
Assay [13] is described as follows: viability loss in CEM21 cells – cell-based, CellTiter-Glo luminescence, cherry-picked, cytotoxicity control for viral fusion inhibitor project, dose response (AID 652042).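 Note: potency for signal decrease meaning cytotoxicity.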 The class given is functional.
A short description of assay [14]: MIN6 cell viability loss – mouse insulinoma, cytotoxicity control, dose response (AID 2122).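 Note: confirmatory high-throughput counterscreen run to flag cytotoxic compounds.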 It counts as functional.
Assay [15] can be described thus: loss of viability in HepG2 cells – cell-based, CellTiter-Glo, cherry-picked, cytotoxicity control for Shn3 inhibitor project, dose response (AID 624134). It counts as functional.
The target of assay [16] is Delta-type opioid receptor (Homo sapiens, UniProt P41143). The experiment in a line: Counterscreen for agonists of heterodimerization of the mu 1 (OPRM1) and delta 1 (OPRD1) opioid receptors: Luminescence-based cell-based high throughput dose response assay to identify agonists of OPRD1 homodimerization. [Related pubchem assays (depositor defined):AID504326, AID504355, AID504692, AID504904, AID504905]. It counts as functional.

The next assay has as its target Mu-type opioid receptor (Homo sapiens, UniProt P35372). Put plainly: Counterscreen for agonists of heterodimerization of the mu 1 (OPRM1) and delta 1 (OPRD1) opioid receptors: Luminescence-based cell-based high throughput dose response assay to identify agonists of OPRM1 homodimerization. It counts as functional.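 Note: U2OS cells expressing OPRM1 and beta-arrestin as split beta-galactosidase partners.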
Assay [17] deals with 5-hydroxytryptamine receptor 5A (Homo sapiens, UniProt P47898). Put plainly: Counterscreen for agonists of OPRM1-OPRD1 heterodimerization: luminescence-based cell-based high throughput dose response assay to identify agonists of 5-hydroxytryptamine (serotonin) 5A receptor (HTR5A). [Related pubchem assays (depositor defined):AID504326, AID504355, AID504692, AID504904, AID504905]. The class given is functional.

For another assay, the target named is Nonstructural protein 1 (Influenza A virus, UniProt Q194T2). It counts as functional, Influenza A virus (A/California/07/2009(H1N1)).
The subject of assay [18] is HEK293. Put plainly: NOD2 signaling inhibitors in MDP-stimulated cells, cell-based, uHTS, luminescence (AID 2001). It counts as functional. The note with it: Homo sapiens.

Sequence of Mu-type opioid receptor (P35372 whole entry): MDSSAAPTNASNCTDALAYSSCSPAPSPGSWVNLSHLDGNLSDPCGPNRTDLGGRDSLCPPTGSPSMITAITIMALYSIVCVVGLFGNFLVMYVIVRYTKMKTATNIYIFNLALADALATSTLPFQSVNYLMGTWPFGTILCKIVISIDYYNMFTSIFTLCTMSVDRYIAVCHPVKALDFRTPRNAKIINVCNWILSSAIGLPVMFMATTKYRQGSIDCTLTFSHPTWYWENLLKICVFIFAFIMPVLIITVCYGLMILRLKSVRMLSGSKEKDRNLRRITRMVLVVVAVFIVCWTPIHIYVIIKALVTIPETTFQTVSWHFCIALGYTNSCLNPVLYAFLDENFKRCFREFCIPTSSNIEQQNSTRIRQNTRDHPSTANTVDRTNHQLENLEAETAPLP
Sequence of Delta-type opioid receptor (P41143 whole entry): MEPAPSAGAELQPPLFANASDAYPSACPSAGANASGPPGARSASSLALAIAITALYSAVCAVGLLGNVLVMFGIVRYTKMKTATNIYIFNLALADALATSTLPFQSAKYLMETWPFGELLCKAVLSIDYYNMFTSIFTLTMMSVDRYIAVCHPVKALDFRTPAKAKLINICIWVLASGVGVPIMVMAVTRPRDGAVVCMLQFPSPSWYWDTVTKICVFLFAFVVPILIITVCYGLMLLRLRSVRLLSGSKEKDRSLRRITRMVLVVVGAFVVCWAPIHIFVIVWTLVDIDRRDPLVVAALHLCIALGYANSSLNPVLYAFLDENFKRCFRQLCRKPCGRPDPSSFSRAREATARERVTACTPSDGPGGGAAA
Sequence of 5-hydroxytryptamine receptor 5A (P47898 whole entry): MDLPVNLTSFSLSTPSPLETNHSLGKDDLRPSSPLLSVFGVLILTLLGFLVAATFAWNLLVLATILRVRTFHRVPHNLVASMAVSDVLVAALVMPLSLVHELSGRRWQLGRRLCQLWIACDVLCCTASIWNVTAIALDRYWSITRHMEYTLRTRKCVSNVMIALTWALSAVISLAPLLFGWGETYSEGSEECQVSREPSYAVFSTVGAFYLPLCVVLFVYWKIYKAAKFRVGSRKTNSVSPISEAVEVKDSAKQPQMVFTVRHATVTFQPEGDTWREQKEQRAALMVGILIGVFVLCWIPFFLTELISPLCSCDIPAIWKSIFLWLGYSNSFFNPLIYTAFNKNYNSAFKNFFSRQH
Sequence of Nonstructural protein 1 (Q194T2 whole entry): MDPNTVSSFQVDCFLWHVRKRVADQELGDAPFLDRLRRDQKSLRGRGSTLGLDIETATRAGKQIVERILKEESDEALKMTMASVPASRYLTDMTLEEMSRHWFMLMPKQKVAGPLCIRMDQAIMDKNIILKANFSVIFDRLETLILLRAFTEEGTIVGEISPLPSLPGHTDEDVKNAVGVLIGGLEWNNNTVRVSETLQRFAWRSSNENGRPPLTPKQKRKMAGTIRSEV

Regarding `Cc1cc(C(=O)N/N=C/c2ccc([N+](=O)[O-])s2)c2ccccc2n1`, the EC50 in assay [1] was 13 µM (active); in assay [4], 0.623 µM (active); in [5] it was > 30 µM (not active); in the assay on HEK293 [6], 7.6 µM (active). Also, the IC50 in the assay on HEK293 [2] is 15.8 µM (active); in the assay with HEK293 [3], > 20 µM (inactive).
`COc1ccc(Nc2cc(C)nc(NCc3ccccc3)n2)cc1`: the AC50 in [7] was 0.565 µM (active); in assay [9], 8.45 µM (active); in [10] it was 3.16 µM (active); in assay [11], 3.9 µM (active); in [12], 21.2 µM (active); in [13], 26.7 µM (active). Further, the AC50 in assay [15] is 22 µM (active). Further, the IC50 in assay [8] was 1.14 µM (active); in assay [14] it was 0.699 µM (active). In addition, the results for the EC50 in [4] and in assay [5] were 0.12 µM (active) and > 60 µM (not active), respectively.
Turning to `COC(=O)C(Cc1cccc(C)n1)(c1ccccc1)c1ccccc1`, the EC50 (in assay [16]; at Mu-type opioid receptor; in [17]) was > 92.5 µM (inactive) throughout.
For `CN1C=C/C(=C/c2ccc3ccccc3[n+]2C)c2ccccc21`, the IC50 in the assay with HEK293 [2] is 8.56 µM (active); with HEK293 [3] it was 18 µM (active); on Nonstructural protein 1 it was 16.4 µM (active); in the assay with HEK293 [18] it was 7.8 µM (active). The 50% effective concentration (EC50) with HEK293 [6] was 5.15 µM (active).

Broadly, the EC50 is the midpoint of the concentration-response curve. The IC50 is the concentration needed to halve the response being measured. In general, AC50 refers to the midpoint of the concentration-response curve, whichever way the signal moves.
